In ChEMBL document CHEMBL1759965, “Synthesis and pharmacological evaluation of bivalent antagonists of the nociceptin opioid receptor” (Eur J Med Chem, 2011) one finds Activity, IC50 and Ratio IC50 data, which are given here for 12 molecules.

The target of test [1] is Delta-type opioid receptor (Homo sapiens) (UniProt P41143). Put plainly: Displacement of [3H]-naltrindole from human delta opioid receptor expressed in human HEK293 cells after 2 hrs by scintillation counting. In kind it is cell-based.
Chain of Delta-type opioid receptor (Homo sapiens) (P41143 whole entry): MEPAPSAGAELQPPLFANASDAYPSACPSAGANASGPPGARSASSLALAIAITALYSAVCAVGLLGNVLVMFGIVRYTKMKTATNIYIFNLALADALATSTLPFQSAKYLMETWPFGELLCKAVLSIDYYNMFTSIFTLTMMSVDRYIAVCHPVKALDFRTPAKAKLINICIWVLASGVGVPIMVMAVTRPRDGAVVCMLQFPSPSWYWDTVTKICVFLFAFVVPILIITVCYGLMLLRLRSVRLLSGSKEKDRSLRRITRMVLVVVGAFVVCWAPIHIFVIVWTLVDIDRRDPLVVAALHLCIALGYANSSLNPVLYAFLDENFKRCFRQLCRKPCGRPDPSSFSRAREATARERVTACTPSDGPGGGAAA
The target in test [2] is Mu-type opioid receptor (Homo sapiens, UniProt P35372). Put plainly: Displacement of [3H]-naltrindole from human mu opioid receptor expressed in CHO cells after 2 hrs by scintillation counting. In kind it is cell-based. On the technique in general: In a radioligand displacement assay an active substance lowers the binding of a labelled ligand.
Chain of Mu-type opioid receptor (P35372 whole entry): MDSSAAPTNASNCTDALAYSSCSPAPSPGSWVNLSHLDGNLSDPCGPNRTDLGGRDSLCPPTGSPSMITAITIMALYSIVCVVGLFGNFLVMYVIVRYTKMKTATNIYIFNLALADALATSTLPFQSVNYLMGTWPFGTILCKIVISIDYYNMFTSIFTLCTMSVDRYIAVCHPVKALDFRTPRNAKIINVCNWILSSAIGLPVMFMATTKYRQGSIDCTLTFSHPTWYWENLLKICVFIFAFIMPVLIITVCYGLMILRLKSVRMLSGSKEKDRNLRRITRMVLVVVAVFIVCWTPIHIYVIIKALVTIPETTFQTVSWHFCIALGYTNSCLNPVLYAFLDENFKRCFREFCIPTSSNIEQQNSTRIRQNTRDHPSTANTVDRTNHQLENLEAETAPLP
The species entered for test [3] is Homo sapiens. The experiment in a line: Selectivity ratio of IC50 for human kappa opioid receptor to IC50 for human NOP receptor.
For test [4], the species on record is Homo sapiens. Put plainly: Selectivity ratio of IC50 for human mu opioid receptor to IC50 for human NOP receptor.
Test [5] has as its target T1, Nociceptin receptor (Homo sapiens, UniProt P41146). Put plainly: Antagonist activity at human NOP receptor expressed in human HEK293 cells assessed as inhibition of GTPgammaS binding in presence of 300 nM GDP relative to control. The format is functional, cell-based. (GTPγS resists hydrolysis and so accumulates on activated G proteins.)
Test [6] has as its target T1, Nociceptin receptor. Put plainly: Displacement of [125I]Tyr14-nociceptin from human NOP receptor expressed in human HEK293 cells after 90 mins by scintillation counting.
For test [7], the target named is Kappa-type opioid receptor (Homo sapiens, UniProt P41145). The experiment in a line: Displacement of [3H]-diprenorphine from human kappa opioid receptor expressed in human HEK293 cells after 2 hrs by scintillation counting.
Chain of Kappa-type opioid receptor (P41145 whole entry): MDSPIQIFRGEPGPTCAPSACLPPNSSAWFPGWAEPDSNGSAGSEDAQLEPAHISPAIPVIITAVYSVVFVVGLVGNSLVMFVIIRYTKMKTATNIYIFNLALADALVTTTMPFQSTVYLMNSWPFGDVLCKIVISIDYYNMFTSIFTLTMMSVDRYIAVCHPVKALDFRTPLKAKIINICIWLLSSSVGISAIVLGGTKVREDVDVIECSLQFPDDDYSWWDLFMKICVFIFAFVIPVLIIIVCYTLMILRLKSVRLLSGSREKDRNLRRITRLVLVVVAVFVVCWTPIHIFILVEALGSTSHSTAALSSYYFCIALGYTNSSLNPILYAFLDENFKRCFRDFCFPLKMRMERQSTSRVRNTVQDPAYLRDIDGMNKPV

For orientation: IC50 means the concentration that gives 50% inhibition. Read a low IC50 as greater potency.

The source made the active and inactive calls. The calls are words filed in the database; no cut-off is given here.

T1 sequence (P41146 whole entry): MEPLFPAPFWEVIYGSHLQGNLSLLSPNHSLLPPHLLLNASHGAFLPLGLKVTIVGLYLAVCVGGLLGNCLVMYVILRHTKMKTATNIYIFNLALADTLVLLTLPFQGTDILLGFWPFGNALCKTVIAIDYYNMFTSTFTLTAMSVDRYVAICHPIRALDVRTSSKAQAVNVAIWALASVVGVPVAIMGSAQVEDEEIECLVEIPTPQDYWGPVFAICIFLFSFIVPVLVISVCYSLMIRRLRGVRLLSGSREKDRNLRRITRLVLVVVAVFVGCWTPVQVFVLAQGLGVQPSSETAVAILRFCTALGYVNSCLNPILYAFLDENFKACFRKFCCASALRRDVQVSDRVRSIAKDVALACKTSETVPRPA

Turning to `CCCCCCCCNCc1ccc(OCc2ccccc2C(=O)Nc2ccc3nc(C)cc(N)c3c2)cc1`, in test [1], the result was inactive. Moreover, the concentration for half-maximal inhibition (IC50) turned out to be 4340 nM in test [2], 483 nM in test [6] and 4950 nM in test [7]. The values for the Ratio IC50 in test [3] and in test [4] were 15 and 13, respectively. The result in test [5] was Active.

`Cc1cc(N)c2cc(NC(=O)c3ccccc3COc3ccc(CNCCCCCN)cc3)ccc2n1`: in test [1], the result was inactive. The values for the IC50 in test [2], in test [6] and in test [7] were 4880 nM, 207 nM and 2150 nM, respectively. Further, the Ratio IC50 in test [3] came to 18; in test [4] it was 41. Moreover, the result in test [5] was Active.

As to `Cc1cc(N)c2cc(NC(=O)c3ccccc3COc3ccc(CNCCCCCCCCCCNCc4ccc(OCc5ccccc5C(=O)Nc5ccc6nc(C)cc(N)c6c5)cc4)cc3)ccc2n1`, the outcome in test [1] was inactive. The 50% inhibitory concentration (IC50) in test [2] came to 1320 nM; in test [6] it was 32.7 nM; in test [7], 900 nM. The results for the Ratio IC50 in test [3] and in test [4] were 31 and 45, respectively. Moreover, the outcome in test [5] was Active.

`Cc1cc(N)c2cc(NC(=O)c3ccccc3COc3ccc(CNCCCCCCCCCCN)cc3)ccc2n1`: the result in test [1] was inactive. In addition, the IC50 in test [2] turned out to be 1400 nM; in test [6], 153 nM; in test [7], 9100 nM. The Ratio IC50 in test [3] is 86; in test [4], 13. In addition, in test [5], the result was Active.

As for `Cc1cc(N)c2cc(NC(=O)c3ccccc3COc3ccc(CNCCCCCCCNCc4ccc(OCc5ccccc5C(=O)Nc5ccc6nc(C)cc(N)c6c5)cc4)cc3)ccc2n1`, the result in test [1] was inactive. The 50% inhibitory concentration (IC50) in test [2] stood at 1040 nM; in test [6] it was 30.1 nM; in test [7], 1020 nM. The Ratio IC50 in test [3] was determined as 33; in test [4] it was 34. Further, the result in test [5] was Active.

Take `Cc1cc(N)c2cc(NC(=O)c3ccccc3COc3ccc(CNCCCCCCCCCNCc4ccc(OCc5ccccc5C(=O)Nc5ccc6nc(C)cc(N)c6c5)cc4)cc3)ccc2n1`: the outcome in test [1] was inactive. Also, the half-inhibitory concentration (IC50) in test [2] came to 1160 nM; in test [6] it was 28.1 nM; in test [7], 1050 nM. Also, the Ratio IC50 worked out at 36 in test [3] and 40 in test [4]. For the same molecule, the result in test [5] was Active.

For `CCCCCCCCCNCc1ccc(OCc2ccccc2C(=O)Nc2ccc3nc(C)cc(N)c3c2)cc1`, the outcome in test [1] was inactive. The results for the concentration for half-maximal inhibition (IC50) in test [2], in test [6] and in test [7] were 2170 nM, 305 nM and 2560 nM, respectively. In addition, the Ratio IC50 was found to be 13 in test [3] and 11 in test [4]. Besides, the result in test [5] was Active.

Turning to `CCCCCCCCCCNCc1ccc(OCc2ccccc2C(=O)Nc2ccc3nc(C)cc(N)c3c2)cc1`, the result in test [1] was inactive. The figures for the IC50 in test [2], in test [6] and in test [7] were 2750 nM, 405 nM and 4350 nM, respectively. In addition, the results for the Ratio IC50 in test [3] and in test [4] were 15 and 9.6, respectively. In test [5], the outcome was Active.

Regarding `CCCCCNCc1ccc(OCc2ccccc2C(=O)Nc2ccc3nc(C)cc(N)c3c2)cc1`, the result in test [1] was inactive. Also, the values for the half-maximal inhibitory concentration (IC50) in test [2], in test [6] and in test [7] were 4450 nM, 732 nM and 3670 nM, respectively. For the same molecule, the values for the Ratio IC50 in test [3] and in test [4] were 13 and 16, respectively. Also, the outcome in test [5] was Active.

Take `Cc1cc(N)c2cc(NC(=O)c3ccccc3COc3ccc(CNCCCCCCCCCN)cc3)ccc2n1`: the result in test [1] was inactive. Moreover, the IC50 turned out to be 7070 nM in test [2], 212 nM in test [6] and 6180 nM in test [7]. The Ratio IC50 in test [3] turned out to be 40; in test [4] it was 46. Besides, the outcome in test [5] was Active.

With `Cc1cc(N)c2cc(NC(=O)c3ccccc3COc3ccc(CNCCCCCCNCc4ccc(OCc5ccccc5C(=O)Nc5ccc6nc(C)cc(N)c6c5)cc4)cc3)ccc2n1`, the outcome in test [1] was inactive. The half-inhibitory concentration (IC50) was determined as 1390 nM in test [2], 71.7 nM in test [6] and 1350 nM in test [7]. In addition, the results for the Ratio IC50 in test [3] and in test [4] were 30 and 31, respectively. The result in test [5] was Active.

On to `Cc1cc(N)c2cc(NC(=O)c3ccccc3COc3ccc(CNCCCN)cc3)ccc2n1`, for which the outcome in test [1] was inactive. The half-inhibitory concentration (IC50) in test [2] turned out to be 1400 nM; in test [6], 160 nM; in test [7], 1650 nM. Also, the Ratio IC50 in test [3] came to 14; in test [4], 12. For the same molecule, in test [5], the outcome was Active.
